These results are taken from patent US8592161B2, “Mutational profiles in HIV-1 protease correlated with phenotypic drug resistance” (Janssen R&D Ireland, priority 2002, dated 2013).

Read-outs that look alike come from different tables or passages of the source. Bounds are passed on as bounds.

Type in all cases: cell-based
For one test, the system named is HIV-1/LAI. Nature of the test: In vitro antiviral activity in acutely infected MT4 cells, wild type. The conditions noted are these: read-out: median EC50. How it is done: (§1) Determination of the antiviral activity of a compound was done as described in Pauwels R. et al. (J Virol Methods 1988; 20(4):309-21). Various concentrations of the test compounds were brought into each well of a flat-bottom microtiter plate. Subsequently, HIV and MT4 cells were added to a final concentration of 200-250 50% cell culture infectious doses (CCID50)/well and 30,000 cells/well, respectively. After 5 days of incubation (37° C., 5% CO2), the cytopathic effect of the replicating virus was determined by the tetrazolium colorimetric MTT method. The dose protecting 50% of the cells from virus cytopathic effect was defined as the EC50, while the dose achieving 90% protection was defined as the EC90.
(§2) MT4-LTR-EGFP cells were infected at a multiplicity of infection (MOI) of 0.01 to 0.001 CCID50/cell in the presence of inhibitor. The starting concentration of the inhibitor was two to tee times the EC50, a suboptimal concentration. The cultures were sub-cultivated and scored microscopically on virus-induced fluorescence and cytopathicity every 3-4 days. The cultures were sub-cultivated in the presence of the same compound concentration until signs of virus replication were observed. The escaping virus was further cultivated in the presence of the same inhibitor concentration in order to enrich the population in resistant variants. If full virus breakthrough was observed the supernatant was collected and stored (new virus strain). Afterwards, the same virus was challenged with a higher compound concentration in order to select variants able to grow in the presence of as high as possible inhibitor concentrations. From the new viruses, a virus stock was grown in the absence of inhibitor.
(§3) In vitro drug selection experiments starting from wild-type HIV-1 under pressure of compound 1, compound 2, and Nelfinavir (NFV) have been performed. Tables 1, 2, 3, 4, and 5 show the genotypic and phenotypic characterization of the selected strains.

The test system of test [1] is HIV-1/LAI strain selected with Compound 1 (100 nM, 97 days), protease R41T K70E. Nature of the test: In vitro antiviral activity in acutely infected MT4 cells, selected strain. The conditions noted are these: for EC50: Human immunodeficiency virus 1, Table 1, strain R41T K70E (Compound 1 100 nM, 97 days), read-out: median EC50. How it is done: as §1
as §2, with “The cultures were sub-cultivated in the presence of the same compound concentration until signs of virus replication were observed.” left out, “Afterwards, the same virus was challenged with a higher compound concentration in order to select variants able to grow in the presence of as high as possible inhibitor concentrations.” left out

In test [2] the test system is HIV-1 starting strain of Table 4 (no compound, no mutations). Nature of the test: In vitro antiviral activity in acutely infected MT4 cells, starting strain. The note with it: for EC50: Human immunodeficiency virus 1, starting strain HIV-1, no compound, read-out: median EC50. How it is done: as §1, §2, §3
For test [3], the system named is HIV-1/LAI strain selected with Compound 1 (100 nM, 188 days), protease R41T K70E. Nature of the test: In vitro antiviral activity in acutely infected MT4 cells, selected strain. The note with it: for EC50: Human immunodeficiency virus 1, Table 1, strain R41T K70E (Compound 1 100 nM, 188 days), read-out: median EC50. How it is done:
as §1, §2, §3

The test system of test [4] is HIV-1 strain selected with Comp 1 (20 nM, 94 days), protease R41G/R V82V/I. The description is as above. The conditions noted are these: for EC50: Human immunodeficiency virus 1, Table 4, strain R41G/R V82V/I (Comp 1 20 nM, 94 days), read-out: median EC50. How it is done: as §1, §2, §3
Test [5] relates to HIV-1/LAI strain selected with Comp 1 (100 nM, 195 days), protease S37N R41S K70E. Described as above. The conditions noted are these: for EC50: Human immunodeficiency virus 1, Table 2, strain S37N R41S K70E (Comp 1 100 nM, 195 days), read-out: median EC50. How it is done:
as §1, §2, §3

The subject of test [6] is HIV-1/LAI strain selected with Comp 1 (30 nM, 70 days), protease K70E. The test is described as above. The conditions noted are these: for EC50: Human immunodeficiency virus 1, Table 2, strain K70E (Comp 1 30 nM, 70 days), read-out: median EC50. How it is done: as §1, §2, §3
For test [7], the system named is HIV-1/LAI strain selected with Compound 1 (30 nM, 45 days), protease R41T. Described as above. The note with it: for EC50: Human immunodeficiency virus 1, Table 1, strain R41T (Compound 1 30 nM, 45 days), read-out: median EC50. How it is done: as §1, §2, §3
Test [8] relates to HIV-1/LAI strain selected with Comp 1 (100 nM, 139 days), protease S37S/N R41R/K K70E. Described as above. The note with it: for EC50: Human immunodeficiency virus 1, Table 2, strain S37S/N R41R/K K70E (Comp 1 100 nM, 139 days), read-out: median EC50. How it is done: as §1, §2, §3
Test [9] has as its system HIV-1 strain selected with Comp 1 (40 nM, 161 days), protease R41G V82I. The description is as above. The conditions noted are these: for EC50: Human immunodeficiency virus 1, Table 4, strain R41G V82I (Comp 1 40 nM, 161 days), read-out: median EC50. How it is done: as §1, §2, §3
Test [10] deals with HIV-1/LAI strain selected with Comp 1 (200 nM, 328 days), protease S37N R41S K70E. The description is as above. The conditions noted are these: for EC50: Human immunodeficiency virus 1, Table 2, strain S37N R41S K70E (Comp 1 200 nM, 328 days), read-out: median EC50. How it is done:
as §1, §2, §3

Test [11] relates to HIV-1 strain selected with Comp 1 (40 nM, 175 days), protease R41G V82I. The description is as above. The conditions noted are these: for EC50: Human immunodeficiency virus 1, Table 4, strain R41G V82I (Comp 1 40 nM, 175 days), read-out: median EC50. How it is done: as §1, §2, §3
The subject of test [12] is HIV-1/LAI strain selected with Compound 2 (100 nM), protease R41I. Described as above. The note with it: Human immunodeficiency virus 1, Table 3, R41I strain selected with Compound 2 100 nM (head lists 116, 200, 264 days; assignment unclear), read-out: median EC50. How it is done:
as §1
as §2, with “The cultures were sub-cultivated in the presence of the same compound concentration until signs of virus replication were observed.” left out, “Afterwards, the same virus was challenged with a higher compound concentration in order to select variants able to grow in the presence of as high as possible inhibitor concentrations.” left out

Test [13] deals with HIV-1/LAI strain selected with Compound 2 (100 nM), protease R41I; Table 3. The description is as above. The note with it: Human immunodeficiency virus 1, R41I strain selected with Compound 2 100 nM (head lists 116, 200, 264 days; assignment unclear), read-out: median EC50. How it is done:
as §1, §2, §3

Test [14] has as its system HIV-1/LAI strain selected with NFV (3000 nM, 69 days), protease L10F D30N M46I V77I I85V/I N88D/N. The test is described as above. The note with it: Human immunodeficiency virus 1, Table 5, strain L10F D30N M46I V77I I85V/I N88D/N (NFV 3000 nM, 69 days), read-out: median EC50. How it is done: as §1, §2, §3
In test [15] the test system is HIV-1/LAI strain selected with NFV (9000 nM, 11l days), protease L10F D30N R41R/K K45I/K M46I V77I I84V/I I85V/I N88D. The test is described as above. The note with it: Human immunodeficiency virus 1, Table 5, strain L10F D30N R41R/K K45I/K M46I V77I I84V/I I85V/I N88D (NFV 9000 nM, 11l days), read-out: median EC50. How it is done:
as §1, §2, §3

Test [16] deals with HIV-1/LAI strain selected with NFV (1000 nM, 35 days), protease D30N M46I. Described as above. The conditions noted are these: Human immunodeficiency virus 1, Table 5, strain D30N M46I (NFV 1000 nM, 35 days), read-out: median EC50. How it is done: as §1, §2, §3
The test system of test [17] is HIV-1/LAI strain selected with NFV (9000 nM, 140 days), protease L10F D30N R41R/K K45I/K M46I V77I I84V N88D. The description is as above. The conditions noted are these: Human immunodeficiency virus 1, Table 5, strain L10F D30N R41R/K K45I/K M46I V77I I84V N88D (NFV 9000 nM, 140 days), read-out: median EC50. How it is done: as §1, §2, §3
Setting [18] is: Human immunodeficiency virus 1, MT4, Table 1, wild-type HIV/LAI.
Setting [19] is: Human immunodeficiency virus 1, MT4, Table 2, wild-type HIV-1/LAI.
Where [20] appears, read: Human immunodeficiency virus 1, MT4, Table 4, wild-type HIV-1/LAI.
The mark [21] stands for this setting: Human immunodeficiency virus 1, MT4, Table 3, wild-type HIV-1/LAI.
[22] abbreviates: Human immunodeficiency virus 1, MT4, Table 5, wild-type HIV-1/LAI.

By EC50 is commonly meant the concentration giving half of the maximal effect.

Take `CC(C)CN(C[C@@H](O)[C@H](Cc1ccccc1)NC(=O)O[C@H]1CO[C@H]2OCC[C@H]21)S(=O)(=O)c1ccc(N)cc1` [Compound 1, Carbamic acid, [(1S,2R)-3-[[(4-aminophenyl)sulfonyl](2-methylpropyl)amino]-2-hydroxy-1-(phenylmethyl)propyl]-, (3R,3aS,6aR)-hexahydrofuro[2,3-b]furan-3-yl ester]: the 50% effective concentration (EC50) came out at 3.2 nM with HIV-1/LAI (setting [18]); 2.6 nM in the test on HIV-1/LAI (setting [19]); 2.6 nM in the test with HIV-1/LAI (setting [20]); 26 nM in [1]; 3.4 nM in test [2]; 44 nM in [3]. Besides, the EC50 in test [4] worked out at 1.1 nM; in [5], 4.7 nM; in test [6] it was 6.5 nM; in test [7], 7.7 nM; in test [8] it was 2.5 nM; in [9], 2.6 nM. Further, the concentration giving a half-maximal response (EC50) in [10] came out at 0.4 nM; in [11], 1.9 nM. Besides, the “median FC (fold change in EC50 as compared to wild type)” value in test [1] (Table 1, strain R41T K70E (Compound 1 100 nM, 97 days)) is reported as 8; in [2] (starting strain HIV-1, no compound), 1; in [3] (Table 1, strain R41T K70E (Compound 1 100 nM, 188 days)), 10; in [4] (Table 4, strain R41G/R V82V/I (Comp 1 20 nM, 94 days)), 0; in test [5] (Table 2, strain S37N R41S K70E (Comp 1 100 nM, 195 days)), 2; in [6] (Table 2, strain K70E (Comp 1 30 nM, 70 days)), 3. The “median FC (fold change in EC50 as compared to wild type)” value in [7] (Table 1, strain R41T (Compound 1 30 nM, 45 days)) was determined as 2; in test [8] (Table 2, strain S37S/N R41R/K K70E (Comp 1 100 nM, 139 days)), 1; in test [9] (Table 4, strain R41G V82I (Comp 1 40 nM, 161 days)) it was 1; in [10] (Table 2, strain S37N R41S K70E (Comp 1 200 nM, 328 days)) it was 0.2; in [11] (Table 4, strain R41G V82I (Comp 1 40 nM, 175 days)), 1.

For the compound `CC(C)CN(C[C@@H](O)[C@H](Cc1ccccc1)NC(=O)O[C@H]1CO[C@H]2OCC[C@H]21)S(=O)(=O)c1ccc2nc(NCCN3CCCC3)sc2c1` [Compound 2], the concentration for a half-maximal effect (EC50) came to 12 nM in the test on HIV-1/LAI (setting [21]), 61 nM in test [12] and 6.9 nM in test [13].

Regarding `Cc1cccc(C)c1OCC(=O)N[C@@H](Cc1ccccc1)[C@@H](O)C[C@H](Cc1ccccc1)NC(=O)[C@H](C(C)C)N1CCCNC1=O` [Lopinavir], the half-maximal effective concentration (EC50) in the test on HIV-1/LAI (setting [18]) stood at 7.9 nM; in the test with HIV-1/LAI (setting [19]), 4.6 nM; in the test on HIV-1/LAI (setting [21]) it was 4.6 nM; in the test with HIV-1/LAI (setting [20]) it was 4.6 nM; with HIV-1/LAI (setting [22]) it was 4.6 nM; in [12], 18 nM. In addition, the EC50 stood at 6.8 nM in test [2]; 24 nM in [14]; 47 nM in [3]; 2 nM in test [4]; 39 nM in [15]; 3.9 nM in test [5]. Besides, the EC50 in test [6] was 17 nM; in test [7], 27 nM; in [13], less than 0.9 nM; in test [8] it was 2.8 nM; in test [9], 1.8 nM; in test [10] it was 1.1 nM. In addition, the EC50 in test [16] is 7.7 nM; in test [11], 1 nM; in test [17], 56 nM.

On to `CC(C)c1nc(CN(C)C(=O)N[C@H](C(=O)N[C@@H](Cc2ccccc2)C[C@H](O)[C@H](Cc2ccccc2)NC(=O)OCc2cncs2)C(C)C)cs1` [Ritonavir], for which the EC50 in the test on HIV-1/LAI (setting [18]) was found to be 31 nM; with HIV-1/LAI (setting [19]), 33 nM; in the test on HIV-1/LAI (setting [21]), 33 nM; in the test on HIV-1/LAI (setting [20]), 33 nM; with HIV-1/LAI (setting [22]) it was 33 nM; in test [1], 21 nM. The concentration for a half-maximal effect (EC50) in test [2] was 22 nM; in test [14] it was 27 nM; in [3], 46 nM; in [4], 4.2 nM; in test [15], 86 nM; in [5] it was 14 nM. Also, the concentration for a half-maximal effect (EC50) is 47 nM in test [6]; 32 nM in test [7]; 22 nM in test [13]; 22 nM in test [8]; 6.3 nM in test [9]; 31 nM in test [10]. Moreover, the EC50 came out at 19 nM in [16], 1.7 nM in [11] and 170 nM in test [17].
